Where two headings read alike, the source gives them in different places.
Key:
Assay in all cases: Ras-Raf disruption / FRET / MOA assay (BRAF RBD)
Type in all cases: biochemical
KRAS G13D = KRAS G13D (Homo sapiens, UniProt P01116+P62937, G13D); conditions: with Cyclophilin A
Description: (§1) Disruption of […] Ras-binding Domain (BRAF^RBD) Interaction with K-Ras by Compounds of the Invention (also Called a FRET Assay or an MOA Assay)
(§2) Note—The following protocol describes a procedure for monitoring disruption of K-Ras G12C (GMP-PNP) binding to BRAF^RBD by a compound of the invention. This protocol may also be executed substituting other Ras proteins or nucleotides, such as K-Ras G12D and K-Ras G13D.
(§3) The purpose of this biochemical assay was to measure the ability of test compounds to facilitate ternary complex formation between a nucleotide-loaded K-Ras isoform and Cyclophilin A; the resulting ternary complex disrupts binding to a BRAF^RBD construct, inhibiting K-Ras signaling through a RAF effector. Data is reported as IC50 values.
(§4) In assay buffer containing 25 mM HEPES pH 7.3, 0.002% Tween20, 0.1% BSA, 100 mM NaCl and 5 mM MgCl2, tagless Cyclophilin A, His6-K-Ras-GMPPNP, and GST-BRAF^RBD were combined in a 384-well assay plate at final concentrations of 25 μM, 12.5 nM, and 50 nM, respectively. Compound was present in plate wells as a 10-point 3-fold dilution series starting at a final concentration of 30 μM. After incubation at 25° C. for 3 hours, a mixture of anti-His Eu-W1024 and anti-GST allophycocyanin was then added to assay sample wells at final concentrations of 10 nM and 50 nM, respectively, and the reaction incubated for an additional 1.5 hours. […] Compounds that facilitate disruption of a K-Ras:RAF complex were identified as those eliciting a decrease in the TR-FRET ratio relative to DMSO control wells.

KRAS G12S = KRAS G12S (Homo sapiens, UniProt P01116+P62937, G12S); conditions: with Cyclophilin A
Description: as §1, §2, §3, §4

KRAS G12V = KRAS G12V (Homo sapiens, UniProt P01116+P62937, G12V); conditions: with Cyclophilin A
Description: as §1, §2, §3, §4

KRAS WT = KRAS WT (Homo sapiens, UniProt P01116+P62937); conditions: with Cyclophilin A
Description: as §1, §2, §3, §4

KRAS G12D = KRAS G12D (Homo sapiens, UniProt P01116+P62937, G12D); conditions: Ras-Raf disruption, with Cyclophilin A; read-out: KRAS G12D FRET data IC50
Description: as §1, §2, §3, §4

KRAS G13C = KRAS G13C (Homo sapiens, UniProt P01116+P62937, G13C); conditions: Ras-Raf disruption, with Cyclophilin A; read-out: KRAS G13C FRET data IC50
Description: as §1, §2, §3, §4

NRAS G12C = NRAS G12C (Homo sapiens, UniProt P01111+P62937, G12C); conditions: NRAS G12C; read-out: NRAS G12C FRET data IC50
Description: as §1, §2, §3, §4

KRAS G12C = KRAS G12C (Homo sapiens, UniProt P01116+P62937, G12C); conditions: Ras-Raf disruption, with Cyclophilin A; read-out: KRAS G12C FRET data IC50
Description: as §1, §2, §3, §4
as §3, with “is” for “was”, “Ras” for “K-Ras”, “cyclophilin” for “Cyclophilin”, “effector.” for “effector. Data is reported as IC50 values.”
In assay buffer containing 25 mM HEPES pH 7.3, 0.002% Tween20, 0.1% BSA, 100 mM NaCl and 5 mM MgCl2, tagless Cyclophilin A, His6-K-Ras-GMPPNP (or other Ras variant), and GST-BRAF^RBD are combined in a 384-well assay plate at final concentrations of 25 μM, 12.5 nM and 50 nM, respectively. Compound is present in plate wells as a 10-point 3-fold dilution series starting at a final concentration of 30 μM. After incubation at 25° C. for 3 hours, a mixture of Anti-His Eu-W1024 and anti-GST allophycocyanin is then added to assay sample wells at final concentrations of 10 nM and 50 nM, respectively, and the reaction incubated for an additional 1.5 hours. […] Compounds that facilitate disruption of a Ras:RAF complex are identified as those eliciting a decrease in the TR-FRET ratio relative to DMSO control wells.

[1] = Ras-Raf disruption, read-out: KRAS G13D FRET data IC50
[2] = Ras-Raf disruption, read-out: KRAS G12S FRET data IC50
[3] = Ras-Raf disruption, read-out: KRAS G12V FRET data IC50
[4] = Ras-Raf disruption, read-out: KRAS WT FRET data IC50

Chain of KRAS G13D (P01116 1-169 isoform P01116-2 G13D limits assumed): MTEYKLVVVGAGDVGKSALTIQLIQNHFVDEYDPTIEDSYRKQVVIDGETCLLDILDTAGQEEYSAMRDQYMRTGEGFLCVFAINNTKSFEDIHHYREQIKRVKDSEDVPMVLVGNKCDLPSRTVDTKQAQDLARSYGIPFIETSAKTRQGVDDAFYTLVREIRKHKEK
Chain of KRAS G13D (P62937 whole entry, the tested form may be a part): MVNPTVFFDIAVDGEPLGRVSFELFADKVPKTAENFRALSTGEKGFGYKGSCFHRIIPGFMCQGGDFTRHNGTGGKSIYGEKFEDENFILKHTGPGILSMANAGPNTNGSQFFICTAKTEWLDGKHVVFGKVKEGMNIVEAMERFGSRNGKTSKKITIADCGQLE
Chain of KRAS G12V (P01116 1-169 isoform P01116-2 G12V limits assumed): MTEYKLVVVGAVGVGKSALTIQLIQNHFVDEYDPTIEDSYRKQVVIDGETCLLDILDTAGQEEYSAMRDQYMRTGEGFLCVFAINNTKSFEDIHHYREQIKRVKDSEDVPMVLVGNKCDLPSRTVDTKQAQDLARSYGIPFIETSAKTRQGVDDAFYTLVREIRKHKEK
Chain of KRAS G12V (P62937 whole entry): as the sequence (P62937 whole entry, the tested form may be a part) above
Chain of NRAS G12C (P01111 whole entry G12C): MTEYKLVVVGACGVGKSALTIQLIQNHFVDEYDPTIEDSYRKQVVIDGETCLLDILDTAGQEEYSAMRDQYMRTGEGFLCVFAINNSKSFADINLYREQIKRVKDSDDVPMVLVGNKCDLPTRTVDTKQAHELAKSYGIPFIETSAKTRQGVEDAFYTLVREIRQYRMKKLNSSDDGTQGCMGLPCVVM
Chain of NRAS G12C (P62937 whole entry): as the sequence (P62937 whole entry, the tested form may be a part) above
Chain of KRAS WT (P01116 1-169 isoform P01116-2 limits assumed): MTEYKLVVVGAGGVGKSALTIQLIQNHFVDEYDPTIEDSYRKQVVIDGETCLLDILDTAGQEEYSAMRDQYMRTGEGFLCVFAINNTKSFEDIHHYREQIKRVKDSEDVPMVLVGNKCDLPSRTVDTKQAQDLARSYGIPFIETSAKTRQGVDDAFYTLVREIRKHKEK
Chain of KRAS WT (P62937 whole entry): as the sequence (P62937 whole entry, the tested form may be a part) above
Chain of KRAS G12S (P01116 1-169 isoform P01116-2 G12S limits assumed): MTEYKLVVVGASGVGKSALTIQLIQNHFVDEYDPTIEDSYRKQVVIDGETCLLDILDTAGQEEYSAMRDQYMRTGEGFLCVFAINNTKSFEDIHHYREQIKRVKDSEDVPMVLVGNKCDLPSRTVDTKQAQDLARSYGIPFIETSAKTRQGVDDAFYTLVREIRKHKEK
Chain of KRAS G12S (P62937 whole entry): as the sequence (P62937 whole entry, the tested form may be a part) above
Chain of KRAS G13C (P01116 1-169 isoform P01116-2 G13C limits assumed): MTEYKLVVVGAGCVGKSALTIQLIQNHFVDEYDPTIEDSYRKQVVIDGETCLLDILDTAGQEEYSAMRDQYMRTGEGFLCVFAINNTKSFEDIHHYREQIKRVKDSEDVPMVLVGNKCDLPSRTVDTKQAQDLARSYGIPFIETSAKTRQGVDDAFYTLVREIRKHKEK
Chain of KRAS G13C (P62937 whole entry): as the sequence (P62937 whole entry, the tested form may be a part) above
Chain of KRAS G12C (P01116 1-169 isoform P01116-2 G12C limits assumed): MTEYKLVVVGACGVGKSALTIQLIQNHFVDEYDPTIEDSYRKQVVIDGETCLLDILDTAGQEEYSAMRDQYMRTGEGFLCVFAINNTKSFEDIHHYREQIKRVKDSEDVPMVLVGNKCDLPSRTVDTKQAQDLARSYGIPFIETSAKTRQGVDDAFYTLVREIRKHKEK
Chain of KRAS G12C (P62937 whole entry): as the sequence (P62937 whole entry, the tested form may be a part) above
Chain of KRAS G12D (P01116 1-169 isoform P01116-2 G12D limits assumed): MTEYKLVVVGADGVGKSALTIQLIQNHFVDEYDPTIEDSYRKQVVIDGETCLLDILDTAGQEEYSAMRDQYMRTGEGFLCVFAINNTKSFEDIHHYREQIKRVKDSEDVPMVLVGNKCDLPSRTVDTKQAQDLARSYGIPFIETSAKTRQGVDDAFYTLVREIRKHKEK
Chain of KRAS G12D (P62937 whole entry): as the sequence (P62937 whole entry, the tested form may be a part) above

Row | Compound | IC50 (KRAS G13D; [1]) [µM] | IC50 (KRAS G12S; [2]) [µM] | IC50 (KRAS G12V; [3]) [µM] | IC50 (KRAS WT; [4]) [µM] | IC50 (KRAS G12D) [µM] | IC50 (KRAS G13C) [µM] | IC50 (NRAS G12C) [µM] | IC50 (KRAS G12C) [µM] | IC50 (KRAS G13D; KRAS G13D FRET data IC50, Ras-Raf disruption) [µM] | IC50 (KRAS G12S; KRAS G12S FRET data IC50, Ras-Raf disruption) [µM] | IC50 (KRAS G12V; KRAS G12V FRET data IC50, Ras-Raf disruption) [µM] | IC50 (KRAS WT; KRAS WT FRET data IC50, Ras-Raf disruption) [µM]
1 | CCn1c(-c2cccnc2[C@H](C)OC)c2c3cc(ccc31)-c1cc(O)cc(c1)C[C@H](NC(=O)[C@H](C(C)C)N(C)C(=O)[C@H]1CCN(C(=O)[C@H]3CN3)C1)C(=O)N1CCC[C@H](N1)C(=O)OCC(C)(C)C2 (single isomer, unassigned) [Example 43B] | 1 to 10 | 1 to 10 | 1 to 10 | – | 1 to 10 | 1 to 10 | 0.01 to 0.1 | 0.01 to 0.1 | – | – | – | –
2 | CCn1c(-c2cccnc2[C@H](C)OC)c2c3cc(ccc31)-c1cc(O)cc(c1)C[C@H](NC(=O)[C@H](C(C)C)N(C)C(=O)C1CC3(C1)CN(C(=O)[C@H]1CN1)C3)C(=O)N1CCC[C@H](N1)C(=O)OCC(C)(C)C2 [Example 181] | 0.1 to 1 | 0.1 to 1 | 0.1 to 1 | 0.1 to 1 | – | 0.01 to 0.1 | 0.01 to 0.1 | 0.01 to 0.1 | – | – | – | –
3 | CCn1c(-c2cnccc2COC)c2c3cc(ccc31)-c1cc(O)cc(c1)C[C@H](NC(=O)[C@H](C(C)C)N(C)C(=O)c1ccc(NC(=O)[C@H]3CN3)cn1)C(=O)N1CCC[C@H](N1)C(=O)OCC(C)(C)C2 [47 A and B] | – | – | – | – | 1 to 10 | 0.01 to 0.1 | – | – | – | – | – | –
4 | CCn1c(-c2cnccc2COC)c2c3cc(ccc31)-c1cccc(c1)C[C@H](NC(=O)[C@H](C(C)C)N(C)C(=O)CCN=C=NC1(COC)CC1)C(=O)N1CCC[C@H](N1)C(=O)OCC(C)(C)C2 [72 A and B] | – | > 10 | – | > 10 | – | – | 0.1 to 1 | – | – | – | – | –
5 | CCn1c(-c2cnccc2COC)c2c3cc(ccc31)-c1cccc(c1)C[C@H](NC(=O)[C@H](C(C)C)N(C)C(=O)CCN=C=NCCCN1CCOCC1)C(=O)N1CCC[C@H](N1)C(=O)OCC(C)(C)C2 [17 A and B] | – | > 10 | > 10 | > 10 | 1 to 10 | 1 to 10 | – | 0.01 to 0.1 | – | – | – | –
6 | CCn1c(-c2cccnc2[C@H](C)OC)c2c3cc(ccc31)-c1cc(O)cc(c1)C[C@H](NC(=O)[C@H](C(C)C)N(C)C(=O)N1CCN(C(=O)[C@@H]3CN3)C(=O)C1)C(=O)N1CCC[C@H](N1)C(=O)OCC(C)(C)C2 [Example 197] | – | 0.01 to 0.1 | 0.01 to 0.1 | 0.01 to 0.1 | – | – | 0.01 to 0.1 | 0.01 to 0.1 | – | – | – | –
7 | CCn1c(-c2cnccc2COC)c2c3cc(ccc31)-c1cc(O)cc(c1)C[C@H](NC(=O)[C@H](C(C)C)N(C)C(=O)CN(C)C(=O)C1CN1)C(=O)N1CCC[C@H](N1)C(=O)OCC(C)(C)C2 (stereo partly shown) [32 A and B] | – | – | – | – | – | – | – | – | 1 to 10 | > 10 | > 10 | > 10
8 | CCn1c(-c2cnccc2COC)c2c3cc(ccc31)-c1cccc(c1)C[C@H](NC(=O)[C@H](C(C)C)N(C)C(=O)CCN=C=NCc1ccccc1C)C(=O)N1CCC[C@H](N1)C(=O)OCC(C)(C)C2 [82 A and B] | > 10 | > 10 | > 10 | > 10 | – | > 10 | – | – | – | – | – | –
9 | CCn1c(-c2cnccc2COC)c2c3cc(ccc31)-c1cccc(c1)C[C@H](NC(=O)[C@H](C(C)C)N(C)C(=O)CCN=C=NCCc1cccs1)C(=O)N1CCC[C@H](N1)C(=O)OCC(C)(C)C2 [68 A and B] | > 10 | > 10 | > 10 | > 10 | – | – | – | – | – | – | – | –
10 | CCn1c(-c2cnccc2COC)c2c3cc(ccc31)-c1cccc(c1)C[C@H](NC(=O)[C@H](C(C)C)N(C)C(=O)[C@@H]1CCC(N=C=Nc3ccc(OC)cc3)C1)C(=O)N1CCC[C@H](N1)C(=O)OCC(C)(C)C2 (stereo partly shown) [70 A and B] | > 10 | > 10 | > 10 | > 10 | – | – | – | – | – | – | – | –

Now from value to molecule, other results behind:

Row | IC50 (KRAS G13D; [1]) [µM] | IC50 (KRAS G12S; [2]) [µM] | IC50 (KRAS G12V; [3]) [µM] | IC50 (KRAS WT; [4]) [µM] | IC50 (KRAS G12D) [µM] | IC50 (KRAS G13C) [µM] | Compound | IC50 (NRAS G12C) [µM] | IC50 (KRAS G12C) [µM] | IC50 (KRAS G13D; KRAS G13D FRET data IC50, Ras-Raf disruption) [µM] | IC50 (KRAS G12S; KRAS G12S FRET data IC50, Ras-Raf disruption) [µM] | IC50 (KRAS G12V; KRAS G12V FRET data IC50, Ras-Raf disruption) [µM] | IC50 (KRAS WT; KRAS WT FRET data IC50, Ras-Raf disruption) [µM]
11 | > 10 | > 10 | – | – | – | – | CCn1c(-c2cnccc2COC)c2c3cc(ccc31)-c1cccc(c1)C[C@H](NC(=O)[C@H](C(C)C)N(C)C(=O)CCN=C=NCCCSC)C(=O)N1CCC[C@H](N1)C(=O)OCC(C)(C)C2 [16 A and B] | – | – | – | – | – | –
12 | – | > 10 | > 10 | > 10 | – | – | CCn1c(-c2cnccc2COC)c2c3cc(ccc31)-c1cccc(c1)C[C@H](NC(=O)[C@H](C(C)C)N(C)C(=O)CCN=C=NCc1ccccc1)C(=O)N1CCC[C@H](N1)C(=O)OCC(C)(C)C2 [19 A and B] | – | – | – | – | – | –
13 | > 10 | > 10 | > 10 | > 10 | > 10 | > 10 | CCn1c(-c2cnccc2COC)c2c3cc(ccc31)-c1cccc(c1)C[C@H](NC(=O)[C@H](C(C)C)N(C)C(=O)C1CCC(N=C=Nc3ccc(OC)cc3)C1)C(=O)N1CCC[C@H](N1)C(=O)OCC(C)(C)C2 (stereo partly shown) [71 A and B] | – | – | – | – | – | –
14 | > 10 | > 10 | > 10 | > 10 | > 10 | – | CCn1c(-c2cnccc2COC)c2c3cc(ccc31)-c1cccc(c1)C[C@H](NC(=O)[C@H](C(C)C)N(C)C(=O)CC1(N=C=Nc3ccc(OC)cc3)CC1)C(=O)N1CCC[C@H](N1)C(=O)OCC(C)(C)C2 [65 A and B] | > 10 | – | – | – | – | –
15 | > 10 | > 10 | – | – | > 10 | – | CCn1c(-c2cnccc2COC)c2c3cc(ccc31)-c1cccc(c1)C[C@H](NC(=O)[C@H](C(C)C)N(C)C(=O)CCN=C=NC(C)(C)C)C(=O)N1CCC[C@H](N1)C(=O)OCC(C)(C)C2 [79 A and B] | – | – | – | – | – | –
16 | – | > 10 | > 10 | > 10 | – | – | CCn1c(-c2cnccc2COC)c2c3cc(ccc31)-c1cccc(c1)C[C@H](NC(=O)[C@H](C(C)C)N(C)C(=O)CCN=C=NCc1ccc(OC)cc1)C(=O)N1CCC[C@H](N1)C(=O)OCC(C)(C)C2 [18 A and B] | – | – | – | – | – | –
17 | > 10 | > 10 | > 10 | > 10 | > 10 | > 10 | CCn1c(-c2cnccc2COC)c2c3cc(ccc31)-c1cccc(c1)C[C@H](NC(=O)[C@H](C(C)C)N(C)C(=O)CCN=C=NCc1ccc(OC)cc1OC)C(=O)N1CCC[C@H](N1)C(=O)OCC(C)(C)C2 [61 A and B] | – | – | – | – | – | –
18 | > 10 | > 10 | > 10 | > 10 | > 10 | – | CCn1c(-c2cnccc2COC)c2c3cc(ccc31)-c1cccc(c1)C[C@H](NC(=O)[C@H](C(C)C)N(C)C(=O)CCN=C=Nc1ccccc1OC)C(=O)N1CCC[C@H](N1)C(=O)OCC(C)(C)C2 [20 A and B] | – | – | – | – | – | –
19 | > 10 | 1 to 10 | 1 to 10 | 1 to 10 | – | 0.1 to 1 | CCCN=C=NCCC(=O)N(C)[C@H](C(=O)N[C@H]1Cc2cccc(c2)-c2ccc3c(c2)c(c(-c2cnccc2COC)n3CC)CC(C)(C)COC(=O)[C@@H]2CCCN(N2)C1=O)C(C)C [22 A and B] | 0.01 to 0.1 | 0.01 to 0.1 | – | – | – | –

Source: patent US20230233569A1 (Revolution Medicines, Inc., priority 2020, published 2023)
